# Assay results from patent publication US11103509B2 (University of Kentucky Research Foundation, priority 2018, dated 2021).
# Entries after “also recorded” stand apart in the source; their conditions may differ. Where two headings read alike, the source gives them in different places.
# Legend:
# human mPGES-1 [1] = target: T1, human mPGES-1 (Homo sapiens, UniProt O14684); assay: in vitro inhibitory activity against human mPGES-1 (PGE2 enzyme immunoassay); type: biochemical
# T1 construct: made in house
# T1 sequence (O14684 1-152): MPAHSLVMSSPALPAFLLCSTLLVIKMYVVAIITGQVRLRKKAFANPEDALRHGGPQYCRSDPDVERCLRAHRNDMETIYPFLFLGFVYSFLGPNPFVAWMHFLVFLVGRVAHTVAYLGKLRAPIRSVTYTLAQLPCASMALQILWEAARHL
# Description: The above computational predictions were followed by in vitro activity assays for their actual inhibitory activity against human mPGES-1 using an ELISA assay previously-described.^16-17, 19 Specifically, a total of 18 FDA-approved drugs were assayed for their inhibitory activity against human mPGES-1.
# The protocol for the protein preparation and in vitro activity assays were the same as described previously.^69-72 The enzyme activity assays were performed on ice in 1.5 ml microfuge tubes by using the expressed human mPGES-1. The reaction mixture contained: 0.2 M Na2HPO4/NaH2PO4, pH 7.2, 10 μL; 0.1 M GSH, 2.5 μL; diluted microsomal enzyme (80 μg/mL), 1 μL; PGH2 (0.31 mM in DMF), 5 μL; 1 μL inhibitor; and H2O in a final reaction volume of 100 μL. PGH2 was stored in dry ice and used to initiate the reaction. Compounds were incubated with the enzyme for 15 min at room temperature before the addition of cold PGH2 (1 μM final) to initiate the enzyme reaction. After 30 s, 10 μL of SnCl2 (40 mg/mL) in ethanol was added to stop the reaction. The non-enzymatic conversion of PGH2 to PGE2 was performed in the same buffer devoid of enzyme. The reaction mixture was placed on ice until PGE2 production was determined by the PGE2 enzyme immunoassay as described earlier. IC50 values of the inhibitors were calculated by using the GraphPad Prism 6.0.
# pain in cancer patients [2] = assay: clinical data mining: patients complaining about pain in lapatinib clinical trials; type: in vivo, human; set-up: Pain decreased compared to control group (%): Arthralgia / Pain decreased compared to control group (%): Musculoskeletal Pain / Pain decreased compared to control group (%): Headache / Pain decreased compared to control group (%): Oral pain / Pain decreased compared to control group (%): Pain-overall / Pain decreased compared to control group (%): Myalgia: concentration or dose not given beside the values
# Description: The “other adverse events” part of the clinical report was analyzed.
# In particular, all of the data from clinical trials NCT00424255, NCT00390455, NCT00371566, and NCT00374322 was collected together as a larger dataset.
# (§1) All p values on the differences between groups were calculated using χ^2 tests on GraphPad Prism 6.0. Confidence interval was set at 95%. […] Barnard's tests or Fisher's tests were not chosen due to the large sample size and Yate's correction on χ^2 tests was not adopted due to the same reason.
# pain in cancer patients [3] = assay: clinical data mining: pain complaints in phase III clinical trial NCT00490139; type: in vivo, human; details: compared to patients given only trastuzumab (FIG. 5)
# Description: as §1
# human mPGES-1 [4] = target: T1, human mPGES-1; assay: in vitro inhibitory activity against human mPGES-1 (PGE2 enzyme immunoassay); type: biochemical; details: lapatinib constant 1 μM, GSH at different concentrations (FIG. 3D)
# [5] = human, read-out: Cmax (μM) in plasma, cited from earlier work
# pain in cancer patients [6] = details: cited from earlier work
# [7] = tested on: pain symptoms in inflammatory breast cancer patients; details: lapatinib monotherapy, n=17, not statistically significant (p>0.05); cited from earlier work
# pain in cancer patients [8] = details: NCT00490139 Group III: oral lapatinib 1500 mg daily, 52 weeks; cited from earlier work
# [9] = all individual pains added, four trials
# [10] = combined NCT00374322, NCT00390455
# [11] = combined NCT00374322, NCT00390455, NCT00424255, NCT00371566
# [12] = combined NCT00390455, NCT00424255
# [13] = combined NCT00424255, NCT00371566
# [14] = combined nine trials (footnote e)
# [15] = NCT00371566, with drug total 69
# [16] = NCT00374322, with drug total 1573
# [17] = NCT00390455, with drug total 141
# [18] = NCT00424255, with drug total 349
compound,measurement,setting,value
CS(=O)(=O)CCNCc1ccc(-c2ccc3ncnc(Nc4ccc(OCc5cccc(F)c5)c(Cl)c4)c3c2)o1 [lapatinib],IC50,human mPGES-1 [1],800 nM
same,"# of patients complaining pain/# of patients given lapatinib, Counts: Pain-overall",pain in cancer patients [2]; [9],304/4754
same,"patients complaining pain, Percentage (%): Pain-overall",pain in cancer patients [2]; [9],6.39%
same,Pain decreased compared to control group (%): Pain-overall,"pain in cancer patients [2]; all individual pains added, four trials, control drugs or placebo",28.00%
same,"# of patients complaining pain/# of patients given lapatinib, Counts: Arthralgia",pain in cancer patients [2]; [10],72/1714
same,"patients complaining pain, Percentage (%): Arthralgia",pain in cancer patients [2]; [10],4.20%
same,"# of patients complaining pain/# of patients given lapatinib, Counts: Headache",pain in cancer patients [2]; [11],182/2132
same,"patients complaining pain, Percentage(%): Headache",pain in cancer patients [2]; [11],8.54%
same,Pain decreased compared to control group (%): Headache,"pain in cancer patients [2]; combined NCT00374322, NCT00390455, NCT00424255, NCT00371566, control drugs or placebo",23.02%
same,Pain decreased compared to control group (%): Arthralgia,"pain in cancer patients [2]; combined NCT00374322, NCT00390455, control drugs or placebo",39.60%
same,"# of patients complaining pain/# of patients given lapatinib, Counts: Musculoskeletal Pain",pain in cancer patients [2]; [12],15/490
same,"patients complaining pain, Percentage (%): Musculoskeletal Pain",pain in cancer patients [2]; [12],3.06%
same,Pain decreased compared to control group (%): Musculoskeletal Pain,"pain in cancer patients [2]; combined NCT00390455, NCT00424255, control drugs or placebo",39.67%
same,"# of patients complaining pain/# of patients given lapatinib, Counts: Oral pain",pain in cancer patients [2]; [13],35/418
same,"patients complaining pain, Percentage (%): Oral pain",pain in cancer patients [2]; [13],8.37%
same,Pain decreased compared to control group (%): Oral pain,"pain in cancer patients [2]; combined NCT00424255, NCT00371566, control drugs or placebo",18.03%
same,"# of patients complaining pain/# of patients given lapatinib, Counts: Myalgia",pain in cancer patients [2]; [14],321/3314
same,"patients complaining pain, Percentage (%): Myalgia",pain in cancer patients [2]; [14],9.69%
same,Pain decreased compared to control group (%): Myalgia,"pain in cancer patients [2]; combined nine trials (footnote e), control drugs or placebo",14.02%
same,overall pain relief (in words),"pain in cancer patients [2]; pain-overall category, combined trials, p<0.05",significantly relieve pain in cancer patients
same,pain relief in NCT00490139 (in words),pain in cancer patients [3],"significantly relive all types of pain (p<0.05), except for the back pain"
same,competition with co-factor GSH,human mPGES-1 [4],competes with co-factor GSH; also recorded: GSH-competitive inhibitor
same,Cmax,"[5]; 1250 mg orally once daily, trial NCT00477464",6.06 µM
same,Cmax,"[5]; 1500 mg (6 pills at 250 mg) once oral daily, trials NCT00486954 and NCT01138046, average Cmax",8.6 µM
same,Cmax,"[5]; dose 10 mg, GW572016 ditosylate monohydrate oral suspension (Bence et al.)",0.019 µM
same,Cmax,"[5]; dose 25 mg, GW572016 ditosylate monohydrate oral suspension (Bence et al.)",0.04 µM
same,Cmax,"[5]; dose 50 mg, GW572016 ditosylate monohydrate oral suspension (Bence et al.)",0.124 µM
same,Cmax,"[5]; dose 100 mg, GW572016 ditosylate monohydrate oral suspension (Bence et al.)",0.213 µM
same,Cmax,"[5]; dose 175 mg, GW572016 ditosylate monohydrate oral suspension (Bence et al.)",0.38 µM
same,Cmax,"[5]; dose 250 mg, GW572016 ditosylate monohydrate oral suspension (Bence et al.)",0.546 µM
same,Cmax,"[5]; dose 500 mg, tablets, daily oral, trial EGF10004",1.76 µM
same,Cmax,"[5]; dose 650 mg, tablets, daily oral, trial EGF10004",2.24 µM
same,Cmax,"[5]; dose 1000 mg, tablets, daily oral, trial EGF10004",3.18 µM
same,"Headache, With drug pains",pain in cancer patients [6]; [15],3
same,"Oral pain, With drug pains",pain in cancer patients [6]; [15],10
same,patients reporting arthralgia / patients in lapatinib group,"pain in cancer patients [6]; NCT00374322, vs placebo 113/1574",69/1573
same,patients reporting headache / patients in lapatinib group,"pain in cancer patients [6]; NCT00374322, vs placebo 185/1574",140/1573
same,"Arthralgia, With drug pains",pain in cancer patients [6]; [16],69
same,"Headache, With drug pains",pain in cancer patients [6]; [16],140
same,"Arthralgia, With drug pains",pain in cancer patients [6]; [17],3
same,"Back Pain, With drug pains",pain in cancer patients [6]; [17],5
same,"Bone Pain, With drug pains",pain in cancer patients [6]; [17],3
same,"Headache, With drug pains",pain in cancer patients [6]; [17],19
same,"Musculoskeletal Pain, With drug pains",pain in cancer patients [6]; [17],0
same,"Pain In Extremity, With drug pains",pain in cancer patients [6]; [17],1
same,"Pain-chest/thorax, With drug pains",pain in cancer patients [6]; [17],1
same,"Headache, With drug pains",pain in cancer patients [6]; [18],20
same,"Musculoskeletal Pain, With drug pains",pain in cancer patients [6]; [18],15
same,"Oral pain, With drug pains",pain in cancer patients [6]; [18],25
same,relief from symptoms including pain (in words),[7],"provide relief from symptoms, including pain, in the short term"
same,"Arthralgia, Patient counts",pain in cancer patients [8],290/2057
same,"Arthralgia, patient percentage",pain in cancer patients [8],(14.10%)
same,"Back Pain, patient percentage",pain in cancer patients [8],(5.79%)
same,"Bone Pain, Patient counts",pain in cancer patients [8],91/2057
same,"Bone Pain, patient percentage",pain in cancer patients [8],(4.42%)
same,"Headache, Patient counts",pain in cancer patients [8],161/2057
same,"Headache, patient percentage",pain in cancer patients [8],(7.83%)
same,"Musculoskeletal pain, Patient counts",pain in cancer patients [8],70/2057
same,"Musculoskeletal pain, patient percentage",pain in cancer patients [8],(3.40%)
same,"Pain in Extremity, Patient counts",pain in cancer patients [8],99/2057
same,"Pain in Extremity, patient percentage",pain in cancer patients [8],(4.81%)
